Results taken from US20260193647A1, “MIRNA-BASED CANCER THERAPY WITH A TUMOR-NAVIGATING PEPTIDE” (The Board of Trustees of the Universities of Illinois, priority 2022, published 2026).
pIC50: −log10 of the molar value. Ends that are not written are not given here.

Tests used:
SJ-GBM2 cells = test: cells; details: Homo sapiens, 24 h, read-out: IC50 (cell viability)
Method: (§1) Cell viability was evaluated by a CCK-8 assay (Dojindo, Japan). Cells were seeded at a density of 4,000 cells per well in 100 μl of growth medium in 96-well plates and grown overnight. Then, the cells were exposed to antisense miR-20a alone, p28 alone or negative control or AmiR20-p28 over a range of concentrations and incubated for 24 hr. According to the manufacturer's instructions, 10 μl of CCK-8 solution was added to each well, followed by incubation for 1 hr at 37° C. The absorbance at 450 nm was determined by a multiplate reader.
(§2) Cell viability (%)=Abs(sample)−Abs(blank)/Abs(no treatment)−Abs(blank)×100

[1] = human, in vivo; cited from earlier work
miR-20a = miR-20a expression levels by stem loop qPCR in treated cells; assay type: cell-based, human; details: any of the cell lines tested; administered alone, 10 nM, 24 hr
Excerpt: Micro RNA enriched fraction was extracted using the miRNeasy Mini Kit (Qiagen, Catalog #217004) following the manufacturer's instructions. Stem loop real-time qPCR was used to analyze miRNA expression. We designed miR-20a stem loop RT primers and amplification primers according to a previously described method 79. cDNA was synthesized from extracted RNA using unique stem loop RT primers. The sequence of the stem loop primer for miR-20a was 5′-[…]-3′ (SEQ ID NO:7). Reverse transcriptase reactions contained the following reagents: 10 ng of RNA sample, 60 nM stem-loop RT primer, 1×RT buffer, 0.25 mM dNTP, and 4 U/μl reverse transcriptase. Reactions were performed by incubation at 16° C. for 30 min, 42° C. for 30 min and 85° C. for 5 min. Real-time PCR (7300 Real time PCR Systems, Applied Biosystems, CA) was performed using the specific forward primer for miR-20a (5′-[…]-3′ (SEQ ID NO:8)) and a universal reverse primer (5′-GTGCA GGGTC CGAGGT-3′ (SEQ ID NO:9)). The 20-μl PCR mixture included 1×SYBR Premix (Invitrogen), 2 μl of RT products and each forward and reverse primer at 10 nM. Reactions were performed by incubation in a 96-well plate at 95° C. for 30 sec, followed by 35 cycles of 95° C. for 30 sec and 60° C. for 30 sec. U6 was used as an internal control to normalize the level of target miRNAs. The results were verified by performing PCR using M13 modified forward and reverse primers specific to stem loop sequence. The PCR products were visualized in 2% agarose gels and DNA-sequence was confirmed. Human tumor and serum samples were obtained from patients who had signed informed consent and the institutional review board approval was obtained in Pediatric Brain Tumor Consortium (PBTC-041) participating sites.

[2] = test system: SJ-GBM2 cells, CHLA-200 cells and astrocytes; test: Cellular entry by confocal microscopy; assay type: cell-based, human; details: 20 μM Alexa Fluor labeled, 2 hr, 37° C.; pGBM cells vs normal astrocytes
Method: p28 or AmiR20-p28 were dissolved in PBS mixed with Alexa Fluor 568 dye (Invitrogen) at a 1:2 peptide/dye ratio 37. Sodium bicarbonate (pH 8.5) was added and incubated at 4° C. with continuous stirring. Alexa Fluor 568 labeled p28 and AmiR20-p28 were dialyzed against cold-PBS using Slide-A-Lyzer Dialysis Cassettes (Pierce Biotechnology). Similarly, p28 was labeled with ICG as described previously.
SJ-GBM2 cells, CHLA-200 cells and astrocytes (2×10^4 cells/well) were cultured on glass slides placed in 24-well plates. After overnight culture, the cells were washed with PBS and incubated with 20 μM Alexa Fluor 568-labeled p28 peptide in medium (5% FBS and without phenol red) for 2 hr at 37° C. Cells were fixed with 2% formalin for 10 min. After washing, slides were prepared and mounted with Vectashield with DAPI (Vector Laboratories, Catalog #94010). Slides were examined by an LSM 710 confocal laser scanning microscope (Zeiss). Images were processed using ZEN software (ZEISS ZEN Lite). As for a GSC marker, the slides were first incubated with Alexa Fluor 568-labeled AmiR20-p28 for 2 hr at 37° C. Cells were fixed with 2% formalin for 10 min. After washing, slides were incubated with blocking buffer for 1 hr at room temperature, followed by consecutive staining with anti-CD133 antibody (1:500, R&D Systems FAB11331G). Slides were washed and mounted with Vectashield containing DAPI. […]

[3] = test system: SJ-GBM2, CHLA-200, LN-229 and astrocytes; test: CCK-8 cell viability assay, set of cell lines tested; assay type: cell-based, human; details: component alone; 24 hr
Method: as §1, §2

miR21 = miR21 expression by qPCR in treated cells; assay type: cell-based, human

## Cn1nnc2c(C(N)=O)ncn2c1=O [TMZ, temozolomide]
SJ-GBM2 cells
  pIC50: ~3.22

## p28: CPP derived from Pseudomonas aeruginosa azurin that preferentially enters cancer cells; carrier component tested alone [reference compound]
[1]
  tolerability in patients: well tolerated without apparent adverse effects, toxicity, or immunogenicity
miR-20a
  inhibitory effect on miR-20a expression: did not have a significant inhibitory effect
[2]
  cellular entry (confocal images): preferentially penetrated
[3]
  inhibitory effect on cell viability: neither p28 nor AmiR20, alone had an inhibitory effect on cell viability
miR21; any cell lines tested, component alone
  reduction of miR21: did not induce a significant reduction of miR21

## AmiR21-p28: cell-penetrating peptide p28 chemically conjugated to antisense-miR21 (LSTAADMQGVVTDGMASGLDKDYLKPDD; also: chemically conjugated to antisense miR-21, site not given here; UniProt P00282 70-97, looked up, fragment)
miR21; pGBM and aGBM cells, Ten nM
  endogenous miR21: significantly reduced the endogenous miR21
